# Assay results reported in US20070065385A1, “Cold production method for pearly lustre preparations containing alcohols” (Clariant International, Ltd., priority 2005, published 2007).
# How the values were obtained:
# [1] = cited from earlier work
# [2] = Degree of hydrolysis of stearoxytrimethylsilane to stearyl alcohol in ethanol/water at varying pH, by GC analysis; assay type: physicochemical; conditions: for % Hydrolysis of Stearoxytrimethylsilane to Stearyl Alcohol: 25° C., 5 wt% in 90 wt% ethanol/5 wt% D.I. water
# Source text: The pearlescent effect of the present invention appears to be produced by the interaction of the siloxane compound, trimethylsilylalkylsilsesquioxane in the alcoholic hydrogel. It is believed that the trimethylsilylalkylsilsesquioxanes, such as stearoxytrimethylsilane, which is initially a liquid in anhydrous form, after dispersion in the alcoholic hydrogel, undergoes a degree of hydrolysis which results in the formation of finely dispersed crystals of pure stearyl alcohol in the alcoholic hydrogel. This process continues until the pearlescent appearance, or the desired degree of opacity is achieved. The degree of pearlescence or the density of the opacity can be controlled by controlling the amount of the siloxane and other components. The pH of the mixture influences the speed of the hydrolysis reaction. Preferably, the pH of the mixture of the alcoholic hydrogel and the trimethylsilylalkylsilsesquioxane is from 3 to 6.
# The degree of hydrolysis of stearoxytrimethylsilane was determined in an ethanol/water mixture at varying pH levels ranging from 4.4 to 9.1. A mixture comprising 5 weight percent anhydrous stearoxytrimethylsilane (Available from Clariant Corp., as SILCARE 1 M71), 90 weight percent ethanol and 5 weight percent de-ionized water (D.I.) was subjected to various pH levels and the degree of hydrolysis to stearyl alcohol was determined by GC analysis.
smiles,measurement,setting,value
CCCCCCCCCCCCCCCCCCO [Stearyl alcohol],solubility in alcohol,[1]; alcohol,soluble
same,solubility in water,[1]; water,insoluble
"CCCCCCCCCCCCCCCCCCO[Si](C)(C)C [Stearoxytrimethylsilane, stearoxytrimethylsilane]",speed of hydrolysis,[2]; below a pH of 6,quickly hydrolyses
same,% Hydrolysis of Stearoxytrimethylsilane to Stearyl Alcohol,"[2]; pH (initial) 4.4, 2 Days",>99%
same,% Hydrolysis of Stearoxytrimethylsilane to Stearyl Alcohol,"[2]; pH (initial) 4.4, 14 Days",>99%
same,% Hydrolysis of Stearoxytrimethylsilane to Stearyl Alcohol,"[2]; pH (initial) 4.4, 15 minutes (initial)",>99%
same,% Hydrolysis of Stearoxytrimethylsilane to Stearyl Alcohol,"[2]; pH (initial) 5.3, 2 Days",>99%
same,% Hydrolysis of Stearoxytrimethylsilane to Stearyl Alcohol,"[2]; pH (initial) 5.3, 14 Days",>99%
same,% Hydrolysis of Stearoxytrimethylsilane to Stearyl Alcohol,"[2]; pH (initial) 5.3, 15 minutes (initial)",>99%
same,% Hydrolysis of Stearoxytrimethylsilane to Stearyl Alcohol,"[2]; pH (initial) 5.5, 2 Days",97%
same,% Hydrolysis of Stearoxytrimethylsilane to Stearyl Alcohol,"[2]; pH (initial) 5.5, 14 Days",>99%
same,% Hydrolysis of Stearoxytrimethylsilane to Stearyl Alcohol,"[2]; pH (initial) 5.5, 15 minutes (initial)",55%
same,% Hydrolysis of Stearoxytrimethylsilane to Stearyl Alcohol,"[2]; pH (initial) 6.2, 2 Days",36%
same,% Hydrolysis of Stearoxytrimethylsilane to Stearyl Alcohol,"[2]; pH (initial) 6.2, 14 Days",95%
same,% Hydrolysis of Stearoxytrimethylsilane to Stearyl Alcohol,"[2]; pH (initial) 6.2, 15 minutes (initial)",6%
same,% Hydrolysis of Stearoxytrimethylsilane to Stearyl Alcohol,"[2]; pH (initial) 8.1, 2 Days",10%
same,% Hydrolysis of Stearoxytrimethylsilane to Stearyl Alcohol,"[2]; pH (initial) 8.1, 14 Days",48%
same,% Hydrolysis of Stearoxytrimethylsilane to Stearyl Alcohol,"[2]; pH (initial) 8.1, 15 minutes (initial)",2%
same,% Hydrolysis of Stearoxytrimethylsilane to Stearyl Alcohol,"[2]; pH (initial) 9.1, 2 Days",4%
same,% Hydrolysis of Stearoxytrimethylsilane to Stearyl Alcohol,"[2]; pH (initial) 9.1, 14 Days",21%
same,% Hydrolysis of Stearoxytrimethylsilane to Stearyl Alcohol,"[2]; pH (initial) 9.1, 15 minutes (initial)",2%
